Values of other authors as cited in PMC6376154 (International Journal for Parasitology: Drugs and Drug …, 2019).
Like-named read-outs stand apart in the source and are kept apart here.

System: P. falciparum 3D7 asexual blood stage
Details: cited from earlier work
[1] = MMV Malaria Box data sheet (supplement mmc2.xls), ref MMV data sheet
[2] = value(s) per source (GSK, GNF, StJude), separated by semicolon, ref ChEMBL-NTD, read-out: CHEMBL EC50
[3] = MMV Malaria Box data sheet, ref MMV data sheets
[4] = MMV Malaria Box data sheet, ref MMV data sheets, read-out: EC50_nM
[5] = source GNF, ref ChEMBL_NTD, read-out: CHEMBL EC50
[6] = source GSK, ref ChEMBL_NTD, read-out: CHEMBL EC50
[7] = ChEMBL-NTD value per source (GNF, GSK, StJude), several values in a cell follow the order of the sources, read-out: CHEMBL EC50
[8] = MMV Malaria Box sheet, ref MMV data sheets
[9] = MMV Malaria Box sheet, ref MMV data sheets, read-out: EC50_nM
[10] = MMV Malaria Box data sheet (supplement mmc2.xls), ref MMV data sheet, read-out: EC50_nM
[11] = source StJude, ref ChEMBL_NTD, read-out: CHEMBL EC50

COc1ccccc1N1CCN(C(CNS(=O)(=O)c2ccc(Cl)cc2)c2cccnc2)CC1 (stereo not drawn) [MMV665914]
percent_inh @ 5 uM [1]: 93%
EC50 [2]: 15000 nM

COc1ccc(-c2nc(NC(=O)CS(=O)(=O)c3ccc(F)cc3)sc2C)cc1 [MMV665915]
percent_inh @ 5 uM [3]: 97%
EC50 [4]: 448 nM
EC50 [5]: 212 nM
EC50 [6]: 243 nM

COc1ccccc1CNC(=O)CCn1c(=O)[nH]c2ccccc2c1=O [MMV665916]
percent_inh @ 5 uM [3]: 64%
EC50 [4]: 72.6 nM
EC50 [5]: 537 nM

O=C(Nc1ccc(Cl)cc1)N1CCN(c2ccc3nncn3n2)CC1 [MMV665917]
percent_inh @ 5 uM [3]: 62%
EC50 [5]: 2060 nM

O=C(CSc1ccc2nnc(-c3cccc(F)c3)n2n1)Nc1ccc2c(c1)OCO2 [MMV665918]
percent_inh @ 5 uM [1]: 92%
EC50 [2]: 2110 nM

N=c1c2ccccc2nnn1-c1cccc(C(F)(F)F)c1 [MMV665923]
EC50 [7]: 134 nM

COc1ccc(C(=O)C2CC2c2ccc(Cl)cc2)cc1 (stereo not drawn) [MMV665924]
percent_inh @ 5 uM [8]: 94%
EC50 [9]: 1060 nM
EC50 [5]: 217 nM

O=C(CCl)NCCOc1ccc(Cl)cc1Cl [MMV665927]
EC50 [7]: 538 nM

CCC(C)NCC(O)(c1ccc(Cl)cc1)c1ccc(Cl)cc1 (stereo not drawn) [MMV665928]
percent_inh @ 5 uM [3]: 98%
EC50 [4]: 642 nM
EC50 [5]: 639 nM
EC50 [6]: 843 nM

CCCCNCC(O)(c1ccc(Cl)cc1)c1ccc(Cl)cc1 [MMV665929]
percent_inh @ 5 uM [1]: 97%
EC50 [10]: 843 nM
EC50 [2]: 720 nM

O=C1c2ccccc2-c2nnc(-c3ccc(Br)cc3)cc21 [MMV665934]
percent_inh @ 5 uM [8]: 99%
EC50 [9]: 1070 nM
EC50 [5]: 2500 nM

FC(F)(F)c1ccc(Nc2nnnc3ccccc23)cc1 [MMV665935]
percent_inh @ 5 uM [1]: 77%

Cc1ccc(S(=O)(=O)c2c(COC(=O)c3cccc(C)c3)c(-c3ccccc3)nn2C)cc1 [MMV665936]
percent_inh @ 5 uM [8]: 95%
EC50 [5]: 8400 nM

O=C(Nc1ccsc1C(=O)NC1CCCCC1)c1ccc(F)cc1 [MMV665939]
percent_inh @ 5 uM [1]: 86%
EC50 [2]: 1210 nM

CCOc1ccc(C=Cc2nc(=O)c3ccccc3o2)cc1 [MMV665940]
percent_inh @ 5 uM [3]: 95%
EC50 [4]: 560 nM
EC50 [11]: 188 nM

CN(C)c1ccc(C(O)(c2ccc(N(C)C)cc2)c2ccc(N(C)C)cc2)cc1 [MMV665941]
percent_inh @ 5 uM [3]: 96%
EC50 [4]: 255 nM
EC50 [11]: 620 nM

Nc1ccc(-c2nc3cc(Cc4ccc5[nH]c(-c6ccc(N)cc6)nc5c4)ccc3[nH]2)cc1 [MMV665943]
percent_inh @ 5 uM [8]: 100%
EC50 [9]: 1420 nM
EC50 [5]: 243 nM
EC50 [6]: 512 nM
EC50 [11]: 1080 nM

COc1ccc(CN2CCN(Cc3ccccc3)CC2)c(O)c1 [MMV665944]
percent_inh @ 5 uM [8]: 96%
EC50 [9]: 1080 nM
EC50 [11]: 1090 nM

CC(C)=CCN1CCC(C(=O)Nc2ccc(-c3nc4ccccc4[nH]3)cc2)CC1 [MMV665946]
percent_inh @ 5 uM [1]: 96%
EC50 [10]: 1160 nM

O=C(Nc1ccccc1O)c1ccc(-c2ccc(Cl)cc2Cl)o1 [MMV665948]
percent_inh @ 5 uM [1]: 97%
EC50 [2]: 2460 nM

Oc1ccc(C(=C(Cl)Cl)c2ccc(O)cc2)cc1 [MMV665949]
percent_inh @ 5 uM [8]: 95%
EC50 [11]: 2470 nM

O=C(Nc1ccc(F)c(Cl)c1)Nc1ccc(Cl)c(Cl)c1 [MMV665953]
percent_inh @ 5 uM [1]: 95%
EC50 [10]: 2060 nM
EC50 [2]: 5410 nM

O=C(NCC1Cc2cccc(-c3ccncc3)c2O1)c1csc2c1CCCC2 (stereo not drawn) [MMV665954]
percent_inh @ 5 uM [1]: 87%
EC50 [10]: 1720 nM
EC50 [2]: 8740 nM

CCN(CC)CCCNc1nc(-c2ccc(Cl)cc2)nc2ccccc12 [MMV665961]
percent_inh @ 5 uM [1]: 92%
EC50 [2]: 15000 nM

COc1cccc(C(=O)NC(c2ccc(C)cc2)c2cc(Cl)c3cccnc3c2O)c1 (stereo not drawn) [MMV665969]
percent_inh @ 5 uM [8]: 97%
EC50 [9]: 393 nM
EC50 [11]: 15000 nM

CCOC(=O)C1=C(C)N=c2sc(=Cc3cc(Cl)ccc3O)c(=O)n2C1c1ccc(OC)cc1 (stereo not drawn) [MMV665971]
percent_inh @ 5 uM [8]: 97%
EC50 [9]: 489 nM
EC50 [6]: 746 nM
EC50 [11]: 15000 nM

O=C(Cc1ccccc1)NC(c1ccc(Cl)cc1)c1c(O)ccc2ccccc12 (stereo not drawn) [MMV665972]
EC50 [7]: 15000 nM

CCOC(=O)c1cn(CC)c2cc(N(C)CCc3ccc(OC)c(OC)c3)c(F)cc2c1=O [MMV665977]
percent_inh @ 5 uM [3]: 99%
EC50 [4]: 205 nM
EC50 [5]: 103 nM
EC50 [6]: 425 nM

FC(F)(F)c1cccc(CNC2CCN(CCc3ccccc3)CC2)c1 [MMV665979]
percent_inh @ 5 uM [3]: 96%
EC50 [4]: 685 nM
EC50 [5]: 174 nM

OC1CCCCC1C1(NC(=S)Nc2ccccc2)CCCCC1 (stereo not drawn) [MMV665980]
percent_inh @ 5 uM [8]: 59%
EC50 [5]: 211 nM

CCCCCCc1cc(O)c2c3c(c(=O)oc2c1)CCC(C)C3 (stereo not drawn) [MMV665987]
percent_inh @ 5 uM [8]: 96%
EC50 [9]: 534 nM
EC50 [5]: 364 nM

Cc1nc2ccccc2c(O)c1CC=C(Cl)Cl [MMV665994]
percent_inh @ 5 uM [8]: 89%
EC50 [9]: 836 nM
EC50 [5]: 498 nM

CN1c2ccccc2N(C)C1c1ccc2c(c1)OCO2 [MMV666009]
percent_inh @ 5 uM [1]: 60%
EC50 [10]: 994 nM
EC50 [2]: 1120 nM

Cc1ccc(OCCCCCCNCCO)c(C)c1 [MMV666020]
percent_inh @ 5 uM [8]: 49%
EC50 [5]: 1970 nM

Cc1ccc(-c2cc3c(nn2)-c2ccccc2C3=O)cc1 [MMV666021]
percent_inh @ 5 uM [3]: 99%
EC50 [4]: 94.4 nM
EC50 [5]: 2000 nM

COc1ccc(C(=O)NC(c2ccccc2Cl)c2cc(Cl)c3cccnc3c2O)cc1 (stereo not drawn) [MMV666022]
EC50 [7]: 2370 nM

c1ccc(Cn2c(N=Nc3c(Nc4ccccc4)ccc4ccccc34)nc3ccccc32)cc1 [MMV666023]
percent_inh @ 5 uM [3]: 96%
EC50 [4]: 36.8 nM
EC50 [5]: 2730 nM

OC(Cn1nnc2ccccc21)Cn1c2ccc(Br)cc2c2cc(Br)ccc21 (stereo not drawn) [MMV666025]
EC50 [7]: 3370 nM

COc1ccc(-c2cc3c(nn2)-c2ccccc2C3=O)cc1 [MMV666026]
EC50 [7]: 3840 nM

COc1ccc(C(=O)NC(c2ccc(Cl)cc2Cl)c2cc(Cl)c3cccnc3c2O)cc1 (stereo not drawn) [MMV666054]
percent_inh @ 5 uM [8]: 96%
EC50 [9]: 513 nM
EC50 [6]: 499 nM

O=C(Nc1ccc(Cl)cc1C(=O)Nc1ccncc1)c1ccc(Cl)cc1Cl [MMV666057]
percent_inh @ 5 uM [3]: 94%
EC50 [6]: 611 nM

COc1ccc(CN2CCCC(C(=O)c3ccc(C(F)(F)F)cc3)C2)c(O)c1 (stereo not drawn) [MMV666060]
EC50 [7]: 849 nM

COc1cccc(O)c1CN1CCC2(CCCN(Cc3ccc(F)cc3)C2)C1 (stereo not drawn) [MMV666061]
percent_inh @ 5 uM [1]: 95%
EC50 [10]: 530 nM
EC50 [2]: 865 nM

Cc1ccc(N2C(=O)C3C(C2=O)C2(c4ccccc4)C(=O)C3(c3ccccc3)C(c3ccccc3)=C2c2ccccc2)cc1 (stereo not drawn) [MMV666062]
percent_inh @ 5 uM [3]: 98%
EC50 [4]: 282 nM
EC50 [6]: 869 nM

COc1ccc(CNC2CCN(c3ccc(NC(=O)c4cccc(Cl)c4)cc3)CC2)cc1OC [MMV666067]
percent_inh @ 5 uM [1]: 97%
EC50 [10]: 663 nM
EC50 [2]: 1020 nM

COc1ccc(CCN2CCC(CN(C)Cc3cnn(-c4ccccc4)c3)CC2)cc1 [MMV666069]
percent_inh @ 5 uM [1]: 96%
EC50 [10]: 1430 nM
EC50 [2]: 1160 nM

O=C(NC1CCCC1)c1ccc(N2CCC(NCc3cccc(C(F)(F)F)c3)CC2)cc1 [MMV666070]
percent_inh @ 5 uM [1]: 93%
EC50 [2]: 1330 nM

Cc1ccc(CN2CCC(C(=O)Nc3ccc(-c4cc5ccccc5[nH]4)cc3)CC2)o1 [MMV666071]
percent_inh @ 5 uM [1]: 77%
EC50 [2]: 1420 nM

COCCNC(=O)c1ccc(OC2CCN(Cc3ccc(F)c(F)c3)CC2)c(Cl)c1 [MMV666072]
percent_inh @ 5 uM [3]: 91%
EC50 [6]: 1490 nM

COc1ccc(C2N(C)c3ccccc3N2C)cc1 [MMV666075]
percent_inh @ 5 uM [1]: 62%
EC50 [2]: 15000 nM

Cc1ccc2cc3c(N)c4c(C)ccc(C)c4nc3nc2c1 [MMV666079]
percent_inh @ 5 uM [8]: 98%
EC50 [9]: 1310 nM
EC50 [5]: 431 nM

O=C(NC(c1ccccc1)c1ccc2cccnc2c1O)c1ccccc1 (stereo not drawn) [MMV666080]
percent_inh @ 5 uM [1]: 95%
EC50 [10]: 1170 nM

CCCc1c(C)nc2ccccc2c1O [MMV666081]
percent_inh @ 5 uM [1]: 88%
EC50 [2]: 630 nM

CCCC(c1nnnn1C1CCCCC1)N1CCN(C(=O)c2ccco2)CC1 (stereo not drawn) [MMV666093]
percent_inh @ 5 uM [1]: 82%
EC50 [2]: 1330 nM

CCCc1c(C)nc2ccc(Br)cc2c1O [MMV666095]
percent_inh @ 5 uM [8]: 64%
EC50 [9]: 1190 nM
EC50 [5]: 1510 nM

COc1ccc(C2=C(c3ccc(OC)cc3)C3(c4ccccc4)C(=O)C2(c2ccccc2)C2C(=O)N(c4ccc(C)cc4)C(=O)C23)cc1 (stereo not drawn) [MMV666101]
percent_inh @ 5 uM [3]: 98%
EC50 [4]: 148 nM
EC50 [5]: 12500 nM

CN(C)c1ccc(-c2nc3cc(N)ccc3[nH]2)cc1 [MMV666102]
percent_inh @ 5 uM [1]: 64%
EC50 [2]: 239 nM

CCn1c(SCC(=O)Nc2cc(C(F)(F)F)ccc2Cl)nc2ccccc2c1=O [MMV666103]
percent_inh @ 5 uM [3]: 91%
EC50 [4]: 1000 nM
EC50 [6]: 397 nM

COCCN(C(=O)Cc1cccs1)C(C(=O)NCc1ccc(OC)cc1)c1ccc(C(C)C)cc1 (stereo not drawn) [MMV666105]
percent_inh @ 5 uM [3]: 92%
EC50 [4]: 1190 nM
EC50 [6]: 845 nM

O=C(NC1CCCCC1)C(c1cccs1)N(CCc1ccccc1)C(=O)c1ccco1 (stereo not drawn) [MMV666106]
EC50 [7]: 1040 nM

O=C(CCc1ccco1)NC1CCN(CC2(c3ccc(Cl)cc3)CCC2)CC1 [MMV666108]
percent_inh @ 5 uM [1]: 96%
EC50 [10]: 1140 nM
EC50 [2]: 1450 nM

CCOC(=O)C1(Cc2ccccc2)CCN(Cc2cccc(OC)c2O)CC1 [MMV666109]
percent_inh @ 5 uM [8]: 95%
EC50 [11]: 2290 nM
